Source: paper PMC10746280, “Bacterial efflux pump modulators prevent bacterial growth in macrophages and under broth conditions that mimic the host environment” (mBio, 2023)

Key:
[1] = target: T1, E. coli AcrB (Escherichia coli, UniProt P31224); experiment: Isothermal titration calorimetry (ITC) binding to purified AcrB
T1 construct: 4xHis (C); made in house; host or cells: E. coli BL21-Gold (DE3), plasmid derived from pSPORT1
Description: We selected three compounds for further study, CU032, CU232, and CU244, because they incorporated different aspects of the parent structure, specifically the negative atoms on the benzene ring and the amine on opposite side of the molecule. To determine whether the EPMs could bind AcrB, we used purified E. coli AcrB, which is 95% identical to S. enterica Typhimurium AcrB. […] Here, we show with ITC that, like EPM35, the three analogs are capable of specifically interacting with AcrB to form complexes (Fig. S1; Table 1). Curiously, the analogs have KDs that are 25- to 50-fold larger than that of EPM35. […] Thus, the EPM analogs interact specifically with AcrB in a manner consistent with established EPM substrates.
AcrB protein was purified as described ([25]). Briefly, the AcrB protein contains a 4×His tag at the C-terminus and was overproduced in E. coli BL21-Gold (DE3) cells (Stratagene) using the plasmid derived from pSPORT1 (Invitrogen) ([79]). Cells were grown in 6 L of LB medium with 100 µg/mL ampicillin and disrupted with a French pressure cell. The membrane fraction was collected and washed twice with buffer containing 20 mM sodium phosphate (pH 7.2), 2 M KCl, 10% glycerol, 1 mM EDTA, and 1 mM phenylmethanesulfonyl fluoride (PMSF), and once with 20 mM HEPES–NaOH buffer (pH 7.5) containing 1 mM PMSF. The membrane proteins were then solubilized in 1% (wt/vol) n-dodecyl β-D-maltoside (DDM). Insoluble material was removed by ultracentrifugation at 370,000 × g. The extracted protein was purified with Cu^2+-affinity and G-200 sizing columns ([13], [80]). The purified AcrB protein was then concentrated to a final monomeric concentration of 10 µM in buffer containing 20 mM Na-HEPES (pH 7.5) and 0.05% DDM. Similar protein purification procedures were extensively used to elucidate structure-function of RND transporters, including AcrB ([13], [16], [25]), CusA ([81], [82]), MtrD ([83], [84]), CmeB ([85]), AdeB ([86]), HpnN ([87]), and MmpL3 ([88]).
Briefly, measurements were performed on a Microcal iTC200 (Malvern Panalytical) at 25°C. Before titration, the protein was dialyzed against buffer containing 20 mM Na-HEPES (pH 7.5), 0.05% […] (DDM), and 5% DMSO ([18]). The Bradford assay was used to quantify protein concentration, which was adjusted to a final monomeric concentration of 10 µM. Ligand solution consisting of 100 µM EPM in the aforementioned buffer was prepared as the titrant. Both the protein and ligand samples were degassed before loading the samples. Two-microliter injections of the ligand were used for data collection. Injections occurred at intervals of 60 s and lasted for 4 s. Heat transfer (µcal/s) was measured as a function of elapsed time (s). The mean enthalpies measured from injection of the ligand in the buffer were subtracted from raw titration data before data analysis with ORIGIN software (MicroCal). Titration curves fitted with a non-linear regression fitting to the binding isotherm provided the equilibrium binding constant (KA = 1/KD) and enthalpy of binding (ΔH). Based on the values of KA, the change in free energy (ΔG) and entropy (ΔS) were calculated with the equation ΔG = −RT lnKA = ΔH − TΔS, where T is […] and R is 1.9872 cal/K per mol. Calorimetry trials were also carried out in the absence of AcrB using the same experimental conditions.

[2] = test system: Bacillus subtilis expressing mNeongreen-FtsZ; experiment: Membrane voltage disruption assay (mNeongreen-FtsZ delocalization); type: cell-based; conditions: 150 µM, 15 min, LPM 5.5
Description: We therefore monitored membrane integrity in the presence of EPM analogs by evaluating membrane voltage with mNeongreen-FtsZ ([28][–][30]). The FtsZ protein localizes to the bacterial septum based on membrane potential, and rapid delocalization of fluorescent FtsZ reporters occurs when voltage across the membrane is disrupted ([31], [32]). We monitored mNeongreen-FtsZ localization in a Gram-positive bacterium, Bacillus subtilis, to eliminate the potentially confounding issue of the passage of EPM analogs through the outer membrane at different rates ([24], [33][–][36]).
To determine whether exposure to compound dislodges FtsZ from the cell septum, an overnight culture of Bacillus subtilis grown in LPM at pH 5.5 (LPM 5.5) expressing mNeonGreen-FtsZ (strain DK5092) was exposed to DMSO, CCCP (100 µM) or an EPM analog (150 µM) for 15 or 30 min, as indicated. Bacteria were immobilized on 1% agarose pads made with LPM under a coverslip. To set the threshold value for the FtsZ septal ring, mNeonGreen signal (excitation 488 nm, emission 525 nm) from at least 20 DMSO-treated cells was quantified using a CV1000 confocal microscope with a 100× oil, NA = 1.4 objective. A background-subtracted image was made by subtracting the median intensity from full original images. A signal threshold of ≥400 arbitrary units per pixel was set (Fig. 4B). Then, we manually confirmed that mNeonGreen signal above threshold was at the center of the bacterial rod. We examined 50 cells per sample from at least three biological replicates (≥150 cells per condition). A MATLAB program (https://github.com/Betterton-Lab/FtsZ-Quantification) counted the number of pixels above threshold per cell and averaged this value across all cells for each condition and this value is reported in the graph (Fig. 4C).

T1 sequence (P31224 whole entry): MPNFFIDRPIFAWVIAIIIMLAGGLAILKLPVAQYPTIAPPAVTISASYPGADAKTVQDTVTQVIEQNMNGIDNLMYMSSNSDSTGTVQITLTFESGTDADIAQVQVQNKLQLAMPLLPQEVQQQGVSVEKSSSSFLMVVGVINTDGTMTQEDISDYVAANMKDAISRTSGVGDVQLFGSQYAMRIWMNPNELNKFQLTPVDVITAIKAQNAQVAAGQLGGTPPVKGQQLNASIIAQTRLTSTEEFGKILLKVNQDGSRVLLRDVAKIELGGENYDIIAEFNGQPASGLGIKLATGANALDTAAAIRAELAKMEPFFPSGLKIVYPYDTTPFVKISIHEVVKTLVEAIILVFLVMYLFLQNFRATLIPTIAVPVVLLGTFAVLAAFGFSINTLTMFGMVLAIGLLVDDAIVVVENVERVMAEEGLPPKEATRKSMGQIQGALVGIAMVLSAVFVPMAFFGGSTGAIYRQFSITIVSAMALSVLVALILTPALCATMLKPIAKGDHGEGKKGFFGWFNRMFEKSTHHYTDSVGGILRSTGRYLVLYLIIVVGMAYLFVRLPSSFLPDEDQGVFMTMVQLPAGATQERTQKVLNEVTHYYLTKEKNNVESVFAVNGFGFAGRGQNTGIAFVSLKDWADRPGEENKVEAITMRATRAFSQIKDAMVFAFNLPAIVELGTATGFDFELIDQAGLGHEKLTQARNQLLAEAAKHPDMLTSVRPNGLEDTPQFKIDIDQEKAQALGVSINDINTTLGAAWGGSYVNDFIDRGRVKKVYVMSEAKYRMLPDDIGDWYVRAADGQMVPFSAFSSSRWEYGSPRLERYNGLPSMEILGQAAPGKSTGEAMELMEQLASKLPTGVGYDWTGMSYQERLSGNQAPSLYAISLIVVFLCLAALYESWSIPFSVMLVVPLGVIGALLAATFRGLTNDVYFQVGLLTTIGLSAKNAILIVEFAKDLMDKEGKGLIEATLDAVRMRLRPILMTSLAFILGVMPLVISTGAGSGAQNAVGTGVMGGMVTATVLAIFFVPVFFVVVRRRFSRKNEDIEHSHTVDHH

Compound	∆H [1]	∆S [1]	effect on mNeongreen-FtsZ ring size / localization [2]
OC(CN[C@H]1[C@@H]2CNC[C@@H]21)COc1cc(Cl)cc(Cl)c1 (stereo partly drawn) [CU244]	−8,654 ± 1,384 cal/mol	−6.91 cal/(mol deg)	–
NC1CCN(CC(O)COc2cccc(C(F)(F)F)c2)CC1 (stereo not drawn) [CU232]	−2,124 ± 93 cal/mol	16.30 cal/(mol deg)	no significant effect
NC1CCN(CC(O)COc2ccc(Cl)c(Cl)c2)C1 (stereo not drawn) [CU032]	−1,947 ± 490 cal/mol	15.60 cal/(mol deg)	no significant effect
OC(COc1ccc(Cl)c(Cl)c1)CN1CCC(Nc2nccc(C(F)(F)F)n2)CC1 (stereo not drawn) [EPM35]	–	–	did not alter FtsZ localization
